Reference: article PMC12627232 (MedComm, 2025)

Columns and labels:
B16F10 syngeneic model = assay: B16F10 syngeneic model; format: in vivo; conditions: C57BL/6J mice, HDAC inhibitors by oral gavage, anti-PD-L1 intraperitoneal, 7-day treatment
Experimental: With the approval of the ethics committee of Shandong University, C57BL/6J mice were purchased from Charles River and fed in SPF conditions at the Model Animal Research Centre of Shandong University. To establish the B16F10 syngeneic model, cells in logarithmic growth phase were trypsinized with 0.25% trypsin, resuspended in sterile PBS, and adjusted to 1 × 10^6 cells/100 µL. The cell suspension (100 µL) was subcutaneously injected into the left axilla. When tumors reached to certain volume, mice were randomized (n = 5/group) and treated with Chidamide, LBH‐589, or SDFZ‐8 by oral gavage and intraperitoneal injection of anti‐PD‐L1. Tumor growth curves were plotted over a 7‐day treatment cycle. All procedures complied with AAALAC International guidelines for humane endpoint criteria.

MDA-MB-231 cells = assay: Western blotting (immunoblotting); format: cell-based, human; conditions: 24 h, western blotting
Text: Anti‐H3 (#13998), anticleaved Caspase‐3 (#9661) and anti‐PARP (#9542) antibody was purchased from Cell Signal Technology (CST). Anti‐Caspase‐3 (T40044) was brought from Abmart. Antitubulin antibody (ab179484) was obtained from Abcam PLC. Anti‐Bcl‐2 (F0125) and anti‐Bax (F0037) antibody were purchased from Selleck Chemicals. Anti‐GAPDH antibody (AF1186) was obtained from Beyotime Inc. The protocol of Western blotting was the same as our previous works. In brief, 2.5 × 10^5 MDA‐MB‐231 cells were treated with different drugs or DMSO (equal volume to experimental groups) for 24 h and lysed with modified RIPA buffer. The cell lysates were added to loading buffer (Beyotime #P0015L) and heated in boiling water for 5 mins and then, together with biomarker (Epizymebiotech; 15–250 kDa), were electrophoresed in SDS‐PAGE gels under 80 V voltage until the biomarker reached the end of gels. Next, SDS‐PAGE gels and PVDF membrane were clipped together to perform transmembrane procedure under 350 mA currency for 1 h. Then after incubation with 5% skim milk, TBST, primary antibody and secondary antibody, the PVDF membrane was treated with ECL chemiluminescence solution (Boster Biological Technology #AR1174) and imaged by the imager (Imager 680 Amersham Imager).

[1] = system: immune cells of MC38 syngeneic model; assay: Flow cytometry of tumor-infiltrating and spleen immune cells, MC38 model; format: in vivo, C57BL/6J mice
Experimental: After 14 days, the tumors and spleens were split, and cells were isolated to analyze the change in cancer immunity. For TILs, the tumors were incubated with the tumor digestion fluid (collagenase and hyaluronic acid included) and then filtered with a 200‐gauge mesh and centrifuged (100×g, 1 min). The supernatant was centrifuged (400×g, 5 min) and precipitated cells were purified by 40% percoll solution followed by RBC lysis and washing. For splenocytes, the spleen was passed through a 200‐gauge mesh, and splenocytes were collected after RBC lysis and washing.
The prepared cell suspensions were incubated with rat serum at room temperature for 30 min to block the FC‐receptor and incubated with fluorescent antibodies at 4°C for 1 h. For Foxp3 staining, Foxp3/Transcription Factor Staining Buffer Set (eBioscience; #00‐5523‐00) was used. For intracellular cytokines staining, cells were pre‐stimulated with 1 µg/mL ionomycin (Beyotime; #S1672), 50 ng/mL PMA (Sigma; #P1585) and Brefeldin A (BioLegend; #420601) for 4 h. Flow cytometry was conducted with FACS Celesta (BD Biosciences, USA) and analyzed with FlowJo software.

HDAC3/NCOR1 complex = assay: HDACs enzymatic assay HDAC3; format: biochemical; conditions: Class I; mean ± SD of three
Experimental: HDACs enzymatic assays were conducted according to our previous work. […] Substrates (Boc‐Lys(acetyl)‐AMC for HeLa nuclear extract, Ac‐Leu‐Gly‐Lys (Tfa)‐AMC for HDAC4, HDAC5, HDAC6, HDAC7, HDAC9, HDAC10, and HDAC11, Boc‐Lys(triflouroacetyl)‐AMC for HDAC8 and Ac‐Leu‐Gly‐Lys(acetyl)‐AMC for HDAC1, HDAC2, HDAC3) were added to the mixture. The blank group was set to no enzyme or drug but contains substrates and the control group was set to no drug but contains substrates and enzymes to each 96‐well plate. After 30 min of incubation at 37°C, the mixture was terminated with 1 mg/mL trypsin and 3 µM TSA. After another 30 min, the fluorescence intensity was measured using a Varioskan plate reader at 360/460 nm. […] The inhibition curves and IC50 values were simulated and calculated using the log(inhibitor) versus response (three parameters) mode in GraphPad Prism software.

MC38 syngeneic model = assay: MC38 syngeneic model; format: in vivo; conditions: C57BL/6J mice, SDFZ-8 60 mg/kg qd i.g., 14-day treatment
Experimental: C57BL/6J mice were obtained from HFK Bioscience (Beijing, China) and fed in laminar flow cabinets under SPF conditions. With the approval of the ethics committee of Shandong University, the animal experiments were conducted. […]. By the time tumors reached certain volumes, SDFZ‐8 treatment (SDFZ‐8 in PBS solution containing 5% DMSO, 60 mg/kg, qd, i.g.) was started, with five animals per treatment group. Body weight and tumor size were measured every day during the 14‐day treatment.

MDA-MB-231 xenograft = MDA-MB-231 xenograft model; format: in vivo, BALB/c-nu mice; conditions: MDA-MB-231 xenograft, BALB/c-nu mice, 60 mg/kg/day oral gavage, 22 days
Experimental: BALB/c‐nu mice were obtained from Pengyue Co. Ltd. (Jinan, China) and were fed in laminar flow cabinets under specific pathogen‐free (SPF) conditions. With the approval of ethics committee of Shandong University, the animal experiments were conducted. To establish the MDA‐MB‐231 xenograft model, BALB/c‐nu mice (3–4 weeks old and 15–18 g body weight, male) were selected and injected subcutaneously into the armpits with 1.2 × 10^7 MDA‐MB‐231 cells. […] Body weight and tumor size were measured every 3 days during the 22‐day treatment.

In the case of Nc1cc(F)ccc1NC(=O)c1ccc(CNC(=O)/C=C/c2cccnc2)cc1 [Chidamide, reference compound], the TGI (B16F10 syngeneic model) is reported as 58%.
Cc1[nH]c2ccccc2c1CCNCc1ccc(/C=C/C(=O)NO)cc1 [LBH-589, reference compound] was tested, and the TGI (B16F10 syngeneic model) was 53%.
With O=C(CCCCCCC(=O)Nc1ccccc1)NO [SAHA, Vorinostat, reference compound] the “level of acetylated histone H3 (Ac-H3)” value (MDA-MB-231 cells) was “upregulation”, the “level of acetylated tubulin (Ac-tubulin)” value (MDA-MB-231 cells) was “upregulation” and the “PD-L1 and PD-1 expression in tumor-infiltrating immune cells” value [1] was “upregulated”. The “surface expression of MHC class II in DCs and macrophages” value [1] was “only impacted MHC II in DCs”, the “M2 polarization of TAMs” value ([1]; CD206 marker) was “suppressed” and the “M1 polarization of TAMs” value ([1]; iNOS marker) was “robustly promoted”. The “PD-1 expression in spleen CD4+ T cells and NK cells” value ([1]; spleen) was “downregulated”, the “PD-L1 expression in spleen DCs and macrophages” value ([1]; spleen) was “upregulated” and the “proportion of CD4+ T cells, CD8+ T cells and NK cells in the spleen” value ([1]; spleen) was “did not induce such effects”. The “expression of IFN-γ and TNF-α in CD4+ T cells and CD8+ T cells” value ([1]; tumor) was “upregulation”, the IC50 (HDAC3/NCOR1 complex) was 45 ± 20 nM and the TGI (MC38 syngeneic model) was 50%. It also gave a TGI (MDA-MB-231 xenograft) of 60%.
With atezolizumab [anti-PD-L1] the TGI (B16F10 syngeneic model) was 62%.
